In the Kinase Knowledgebase extract (Sharma et al. 2016):

Target: CDK2 (human) (UniProt P24941)
Experiment: Enzyme Assay
Details: concentration not given here

inhibition	SMILES
74%	CC1CCCC(C(=O)N2CCC(Nc3nc(N)c(C(=O)c4c(F)cccc4F)s3)CC2)C1 (centres undefined)
48%	C=CCSc1ncccc1C(=O)N1CCC(Nc2nc(N)c(C(=O)c3c(F)cccc3F)s2)CC1
81%	Nc1nc(NC2CCN(C(=O)/C=C/c3cc(F)ccc3F)CC2)sc1C(=O)c1c(F)cccc1F
34%	CC(C)(C)C1CCC(C(=O)N2CCC(Nc3nc(N)c(C(=O)c4c(F)cccc4F)s3)CC2)CC1 (centres undefined)
56%	Nc1nc(NC2CCN(C(=O)c3ccc(F)c(F)c3)CC2)sc1C(=O)c1c(F)cccc1F
41%	Cc1ccc(C2(C(=O)N3CCC(Nc4nc(N)c(C(=O)c5c(F)cccc5F)s4)CC3)CC2)cc1
39%	Nc1nc(NC2CCN(C(=O)Cc3ccc4c(c3)OCO4)CC2)sc1C(=O)c1c(F)cccc1F
80%	Nc1nc(NC2CCN(C(=O)/C=C/c3ccncc3)CC2)sc1C(=O)c1c(F)cccc1F
16%	CCCCC(O)C(=O)N1CCC(Nc2nc(N)c(C(=O)c3c(F)cccc3F)s2)CC1 (centres undefined)
52%	Cc1ccc(/C=C/C(=O)N2CCC(Nc3nc(N)c(C(=O)c4c(F)cccc4F)s3)CC2)cc1C
74%	Nc1nc(NC2CCN(C(=O)/C=C/c3ccccc3O)CC2)sc1C(=O)c1c(F)cccc1F
-5%	Nc1nc(NC2CCN(C(=O)CC3CCCCC3)CC2)sc1C(=O)c1c(F)cccc1F
-11%	COc1ccc(C(=O)N2CCC(Nc3nc(N)c(C(=O)c4c(F)cccc4F)s3)CC2)c(OC)c1
66%	Nc1nc(NC2CCN(C(=O)/C=C/c3ccc(O)cc3)CC2)sc1C(=O)c1c(F)cccc1F
61%	N#Cc1ccccc1C(=O)N1CCC(Nc2nc(N)c(C(=O)c3c(F)cccc3F)s2)CC1
84%	CSCC(=O)N1CCC(Nc2nc(N)c(C(=O)c3c(F)cccc3F)s2)CC1
-20%	Nc1nc(NC2CCN(C(=O)CC3CCCC3)CC2)sc1C(=O)c1c(F)cccc1F
28%	Nc1nc(NC2CCN(C(=O)/C=C/c3ccc(F)cc3F)CC2)sc1C(=O)c1c(F)cccc1F
34%	Nc1nc(NC2CCN(C(=O)c3ccoc3)CC2)sc1C(=O)c1c(F)cccc1F
65%	COC(=O)c1cccc(C(=O)N2CCC(Nc3nc(N)c(C(=O)c4c(F)cccc4F)s3)CC2)c1
58%	Nc1nc(NC2CCN(C(=O)/C=C/C=C/c3ccccc3)CC2)sc1C(=O)c1c(F)cccc1F
35%	COc1ccc2[nH]c(C(=O)N3CCC(Nc4nc(N)c(C(=O)c5c(F)cccc5F)s4)CC3)cc2c1
41%	Cc1ccc(C)c(CCCC(=O)N2CCC(Nc3nc(N)c(C(=O)c4c(F)cccc4F)s3)CC2)c1

inhibition	SMILES
9%	Nc1nc(NC2CCN(C(=O)c3ccc4ccccc4n3)CC2)sc1C(=O)c1c(F)cccc1F
62%	Nc1nc(NC2CCN(C(=O)Cc3cccc(Cl)c3)CC2)sc1C(=O)c1c(F)cccc1F
55%	CC(C)(C)c1ccc(CC(=O)N2CCC(Nc3nc(N)c(C(=O)c4c(F)cccc4F)s3)CC2)cc1
39%	CN1CCC[C@H]1C(=O)N1CCC(Nc2nc(N)c(C(=O)c3c(F)cccc3F)s2)CC1
-6%	CO[C@@](C(=O)N1CCC(Nc2nc(N)c(C(=O)c3c(F)cccc3F)s2)CC1)(c1ccccc1)C(F)(F)F
48%	Nc1nc(NC2CCN(C(=O)c3csc([N+](=O)[O-])c3)CC2)sc1C(=O)c1c(F)cccc1F
63%	COC1CCCC(C(=O)N2CCC(Nc3nc(N)c(C(=O)c4c(F)cccc4F)s3)CC2)C1 (centres undefined)
-31%	Nc1nc(NC2CCN(C(=O)C(=O)c3c[nH]c4ccccc34)CC2)sc1C(=O)c1c(F)cccc1F
87%	Nc1nc(NC2CCN(C(=O)Cn3cnnn3)CC2)sc1C(=O)c1c(F)cccc1F
50%	CCOc1cccc(/C=C/C(=O)N2CCC(Nc3nc(N)c(C(=O)c4c(F)cccc4F)s3)CC2)c1
92%	COc1ccccc1/C=C/C(=O)N1CCC(Nc2nc(N)c(C(=O)c3c(F)cccc3F)s2)CC1
12%	CN(CC(=O)N1CCC(Nc2nc(N)c(C(=O)c3c(F)cccc3F)s2)CC1)C(=O)OC(C)(C)C
40%	CC(=O)N(C)CC(=O)N1CCC(Nc2nc(N)c(C(=O)c3c(F)cccc3F)s2)CC1
73%	NC(=S)Nc1ccc(C(=O)N2CCC(Nc3nc(N)c(C(=O)c4c(F)cccc4F)s3)CC2)cc1
52%	CC(C)c1ccc(/C=C/C(=O)N2CCC(Nc3nc(N)c(C(=O)c4c(F)cccc4F)s3)CC2)cc1
44%	CCCSc1ncccc1C(=O)N1CCC(Nc2nc(N)c(C(=O)c3c(F)cccc3F)s2)CC1
9%	CC(=O)c1ccc(O)c(C(=O)N2CCC(Nc3nc(N)c(C(=O)c4c(F)cccc4F)s3)CC2)c1
20%	Cc1ccc(C(=O)N2CCC(Nc3nc(N)c(C(=O)c4c(F)cccc4F)s3)CC2)cn1
47%	Nc1nc(NC2CCN(C(=O)/C=C/c3ccccc3)CC2)sc1C(=O)c1c(F)cccc1F
-12%	Nc1nc(NC2CCN(C(=O)c3ccccc3C(F)(F)F)CC2)sc1C(=O)c1c(F)cccc1F
36%	CC(=O)N1CCC(C(=O)N2CCC(Nc3nc(N)c(C(=O)c4c(F)cccc4F)s3)CC2)CC1
49%	CN(C)C(=O)CCC(=O)N1CCC(Nc2nc(N)c(C(=O)c3c(F)cccc3F)s2)CC1
39%	Nc1nc(NC2CCN(C(=O)CCO)CC2)sc1C(=O)c1c(F)cccc1F

inhibition	SMILES
57%	CCN(CC)CCC(=O)N1CCC(Nc2nc(N)c(C(=O)c3c(F)cccc3F)s2)CC1
27%	CC(C)CCC(=O)N1CCC(Nc2nc(N)c(C(=O)c3c(F)cccc3F)s2)CC1
80%	Nc1nc(NC2CCN(C(=O)c3cccs3)CC2)sc1C(=O)c1c(F)cccc1F
40%	Cc1cc(C(=O)N2CCC(Nc3nc(N)c(C(=O)c4c(F)cccc4F)s3)CC2)nn1C
50%	CC(=O)Oc1c(C)cccc1C(=O)N1CCC(Nc2nc(N)c(C(=O)c3c(F)cccc3F)s2)CC1
81%	Nc1nc(NC2CCN(C(=O)C3CCOC3)CC2)sc1C(=O)c1c(F)cccc1F (centres undefined)
-73%	Nc1nc(NC2CCN(C(=O)c3cccnc3Sc3ccc(Cl)cc3)CC2)sc1C(=O)c1c(F)cccc1F
-2%	Cc1c(S(=O)(=O)N2CCC(Nc3nc(N)c(C(=O)c4c(F)cccc4F)s3)CC2)sc2ccc(Cl)cc12
33%	CC(C)(C(=O)N1CCC(Nc2nc(N)c(C(=O)c3c(F)cccc3F)s2)CC1)c1ccccc1
17%	CCC(O)(CC)C(=O)N1CCC(Nc2nc(N)c(C(=O)c3c(F)cccc3F)s2)CC1
15%	Nc1nc(NC2CCN(C(=O)CCN3CCCCC3)CC2)sc1C(=O)c1c(F)cccc1F
65%	Nc1nc(NC2CCN(C(=O)c3cc(F)c(F)c(F)c3)CC2)sc1C(=O)c1c(F)cccc1F
75%	Nc1nc(NC2CCN(C(=O)C(O)c3ccccc3)CC2)sc1C(=O)c1c(F)cccc1F (centres undefined)
-23%	Nc1nc(NC2CCN(S(=O)(=O)c3c(Cl)cc(C(F)(F)F)cc3Cl)CC2)sc1C(=O)c1c(F)cccc1F
27%	CC(C)C(O)C(=O)N1CCC(Nc2nc(N)c(C(=O)c3c(F)cccc3F)s2)CC1 (centres undefined)
74%	COc1ccc(OCC(=O)N2CCC(Nc3nc(N)c(C(=O)c4c(F)cccc4F)s3)CC2)cc1
77%	C[C@](O)(C(=O)N1CCC(Nc2nc(N)c(C(=O)c3c(F)cccc3F)s2)CC1)c1ccccc1
38%	CC(O)CC(=O)N1CCC(Nc2nc(N)c(C(=O)c3c(F)cccc3F)s2)CC1 (centres undefined)
-7%	Cc1c(S(=O)(=O)c2ccc(Cl)cc2)csc1C(=O)N1CCC(Nc2nc(N)c(C(=O)c3c(F)cccc3F)s2)CC1
71%	Nc1nc(NC2CCN(C(=O)/C=C/c3ccccc3F)CC2)sc1C(=O)c1c(F)cccc1F
-25%	Nc1nc(NC2CCN(S(=O)(=O)c3ccc(Sc4ccncc4)cc3)CC2)sc1C(=O)c1c(F)cccc1F
51%	Nc1nc(NC2CCN(C(=O)/C=C/c3cccc(F)c3F)CC2)sc1C(=O)c1c(F)cccc1F
39%	COc1c(C)cc(C(=O)N2CCC(Nc3nc(N)c(C(=O)c4c(F)cccc4F)s3)CC2)cc1C

inhibition	SMILES
67%	Nc1nc(NC2CCN(C(=O)c3ccc(F)cc3F)CC2)sc1C(=O)c1c(F)cccc1F
-34%	Nc1nc(NC2CCN(C(=O)C(c3ccccc3)c3ccccc3)CC2)sc1C(=O)c1c(F)cccc1F
52%	Nc1nc(NC2CCN(C(=O)c3ccsc3)CC2)sc1C(=O)c1c(F)cccc1F
-34%	CC1(C)C2CC[C@@]1(CS(=O)(=O)N1CCC(Nc3nc(N)c(C(=O)c4c(F)cccc4F)s3)CC1)C(=O)C2
46%	CC(=O)SC[C@@H](C)C(=O)N1CCC(Nc2nc(N)c(C(=O)c3c(F)cccc3F)s2)CC1
43%	CC1CCCCC1C(=O)N1CCC(Nc2nc(N)c(C(=O)c3c(F)cccc3F)s2)CC1 (centres undefined)
-10%	CC1CC1C(=O)N1CCC(Nc2nc(N)c(C(=O)c3c(F)cccc3F)s2)CC1 (centres undefined)
49%	CCC(C)C(C(=O)N1CCC(Nc2nc(N)c(C(=O)c3c(F)cccc3F)s2)CC1)c1ccccc1 (centres undefined)
20%	CC(=O)N1CSC[C@H]1C(=O)N1CCC(Nc2nc(N)c(C(=O)c3c(F)cccc3F)s2)CC1
70%	COc1cccc(CC(=O)N2CCC(Nc3nc(N)c(C(=O)c4c(F)cccc4F)s3)CC2)c1OC
40%	Cn1ncc(C(=O)N2CCC(Nc3nc(N)c(C(=O)c4c(F)cccc4F)s3)CC2)c1[N+](=O)[O-]
27%	Nc1nc(NC2CCN(C(=O)c3cnc4ccccc4c3)CC2)sc1C(=O)c1c(F)cccc1F
17%	CC(CO)(CO)C(=O)N1CCC(Nc2nc(N)c(C(=O)c3c(F)cccc3F)s2)CC1
-11%	Cc1ccccc1C(=O)N1CCC(Nc2nc(N)c(C(=O)c3c(F)cccc3F)s2)CC1
38%	Nc1nc(NC2CCN(C(=O)c3ccc4ccccc4c3)CC2)sc1C(=O)c1c(F)cccc1F
63%	CCSCC(=O)N1CCC(Nc2nc(N)c(C(=O)c3c(F)cccc3F)s2)CC1
47%	Nc1nc(NC2CCN(C(=O)Oc3ccc(F)cc3)CC2)sc1C(=O)c1c(F)cccc1F
33%	COCCC(=O)N1CCC(Nc2nc(N)c(C(=O)c3c(F)cccc3F)s2)CC1
49%	CCC/C=C/CC(=O)N1CCC(Nc2nc(N)c(C(=O)c3c(F)cccc3F)s2)CC1
64%	Nc1nc(NC2CCN(C(=O)/C(F)=C/c3ccccc3)CC2)sc1C(=O)c1c(F)cccc1F
